Test results reported in patent US20240148745A1, “COMPOUNDS FOR USE IN PROGRESSIVE MULTIPLE SCLEROSIS” (FONDAZIONE CENTRO SAN RAFFAELE, priority 2021, published 2024).
Entries after “also recorded” stand apart in the source; their conditions may differ.

What was measured:
[1] = tested on: mouse cortical and striatal neurons; assay: Morphological integrity evaluation, NMDA 20 μM; format: cell-based; details: 1 μM, 24 h pre-treatment, NMDA 20 μM 24 h
Procedure: Morphological integrity evaluation. Mouse cortical and striatal neurons (14 DIV) cultured in MW96 plates were exposed to 1 uM to 60 uM concentrations of NMDA and relationship between the NMDA dose and fiber length was evaluated. […] Each of the compound was tested in quadruplicate. The fiber length was evaluated by MAP2 staining (please see the method described earlier).
42 compounds were screened to evaluate the morphological integrity of cortical and striatal neurons upon chronic (24 h) NMDA exposure at concentration of 20 μM with compounds pre-treatment (24 h) in preventive regimen (FIG. 17).

[2] = tested on: rat oligodendrocyte progenitor CG4 line; assay: Differentiation assay on rat oligodendrocyte progenitor CG4 line (HCS, mCherry+); format: cell-based; details: secondary screen of 49 selected compounds, 1 μM, 5 days
Summary of the method: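 Double-reporter CG4 cells (mCherry in mature oligodendrocytes, EGFP in all lineage stages) proliferated 24 h, then given compounds at 1 μM for 5 days of differentiation, ⅔ medium changed at day 3. 9cis-RA as positive control, basal medium and 0.1% DMSO as negative; triplicates imaged by HCS, 35 fields/well.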

[3] = tested on: rat primary OPC cultures; assay: Differentiation of rat primary OPC into MBP+ OLs; format: cell-based; details: 96 h, 4 days of differentiation, read-out: MBP+ differentiation (MBP+/SOX10+ OLs plus compounds / plus basal medium)
Summary of the method: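 Primary rat OPCs were differentiated for 4 days with compounds at […], in triplicate over 3 independent experiments. Cells were immunolabelled for CNPase, MBP and SOX10, and MBP+ oligodendrocytes were counted by imaging. Results are fold increase in MBP+/SOX10+ cells over basal medium; 9-cis-RA ([…]) was the positive control.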

[4] = tested on: H9-derived human neural stem cells; assay: Neurotoxic or regenerative effect screening (CellTiter-Glo); format: cell-based; details: 10 μM, three independent screenings
Procedure: H9-derived human neural stem cells (H9 hNSCs, Gibco) were cultured according to the manufacturer's instructions. Briefly, H9 hNSCs were expanded and subsequently differentiated in neurobasal medium, 2% B27, 1% Glutamax, and 1% penicillin/streptomycin, supplemented with 10 ng/ml BDNF (Peprotech), and 2 ng/ml recombinant human GDNF (Peprotech). After 7 days, 500 μM of db-cAMP (N6,2′-O-dibutyryladenosine 3′,5′-cyclic monophosphate, Sigma) was added.
The metabolic activity/viability of selected compounds (32 “Front Runners”+24 compounds from the “Short list”) was evaluated by CellTiter-Glo® Luminescent Cell Viability Assay. The primary screen of Front Runner List (32 compounds)+24 compounds from Short List) on H9-derived human neurons was performed at 10 μM concentration. The validation of hits from primary screen on H9-derived human neurons was performed at 10 μM concentration.
32 Front Runners were tested at 10 μM on H9-derived human neuronal cultures and viability was evaluated by CellTiter-Glo® Luminescent Cell Viability Assay.

[5] = tested on: mouse cortical neurons; assay: Morphological integrity evaluation, NMDA 8 μM (MAP2 neurite length and branching); format: cell-based; details: 3 h pre-treatment, NMDA 8 μM 24 h, Z>0.5 criteria
Summary of the method: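 Mouse cortical neurons (14 DIV) pre-treated 3 h with compounds, then exposed 24 h to 8 μM NMDA; fixed, MAP2 immunostained with DAPI. Total neurite length and non-trunk branch number from 15 images/well, triplicates, converted to plate-based Z-scores; NAC positive, staurosporine and NMDA negative controls.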

[6] = tested on: human iPS-derived neuroprecursors; assay: Differentiation of human iPS-derived neuroprecursors into MBP+ oligodendrocytes; format: cell-based; details: 1 μM in minimal medium, p<0.05
Excerpt: NPC bearing a doxycycline inducible polycistronic construct containing SOX10, OLIG2 and NKX6.2^29 in a human safe harbor (passages 10 to 25) were singularized on day −3 by treatment with Accutase and plated on Matrigel-coated 12-well plates at a density of 100.000 cells per well in N2B27-medium containing equal parts of neurobasal (Invitrogen) and DMEM-F12 medium (Invitrogen) with 1:100 B27 supplement lacking vitamin A (Invitrogen), 1:200 N2 supplement (Invitrogen), 1% penicillin/streptomycin/glutamine (PSG), 3 μM CHIR99021 (Axon Medchem), 150 μM ascorbic acid and 0.5 μM SAG. The next day medium was changed to N2B27-medium containing 1 μg/ml doxycycline. On DO medium was changed to glial-induction medium (GIM) consisting of DMEM-F12 with 1:100 B27 supplement lacking vitamin A, 1:200 N2 supplement, 1% PSG, 1 μM SAG, 10 ng/mL NT3 (Peprotech), 10 ng/mL IGF-I (Peprotech), 200 μM AA (Sigma), 1:1000 Trace Elements B (Corning). For full medium conditions 10 ng/ml T3 was added. On Day 2 medium was changed to glial-differentiation medium (GDM) comprising DMEM-F12 with 1:100 B27 supplement lacking vitamin A, 1:200 N2 supplement, 1% PSG, 100 μM dbCAMP (Sigma), 100 μM AA, 1:1000. For full medium conditions 60 ng/mL T3, Trace Elements B 10 ng/mL, IGF-I, 10 ng/mL and NT3 were added to the culture. GDM was changed every other day. On day 7 cells were detached by treatment with Accutase and re-plated on laminin coated 48-well plates at densities of 10.000-12.000 cells per well. After 24 h cells were treated in minimal medium with either vehicle alone [0.01% (vol/vol) DMSO] as a negative control, 60 ng/mL T3 as a positive control, or with a drug candidate dissolved in DMSO. Medium was changed every other day. On D16 doxycycline was removed from the medium. Cells were fixed on D21 and analyzed via immunocytochemistry.
Immunocytochemistry. Cells were initially fixed with 4% PFA treatment for 20 min, RT. Following three washes with PBS cells were incubated with blocking solution containing 5% normal goat serum (NGS) and 5% FCS (fetal calf serum) in PBS for 30 min at RT to prevent unspecific binding of the antibodies. To detect intracellular antigens cells were permeabilized by adding 0.5% Triton X-100 to the Blocking-solution. Cells treated with Triton X-100 were washed three times with PBS each time for 5 min at RT. Primary antibodies (rat anti-MBP,1:50, Abcam, AB7349) were applied overnight, 4° C., in blocking solution. The next day cells were washed 3 times with PBS at RT, and afterwards incubated with secondary antibodies (AF488 Alexa Fluor anti-rat (goat), 1:500, Jackson/Dianova, #112-545-167) diluted in PBS for 1 h at RT. Secondary antibodies were subsequently removed by washing 3 times with PBS. Afterwards PBS containing a Dapi staining for nuclei was added for 5 minutes and afterwards washed off with PBS. Cells were kept at 4° C. until imaging.
Imaging and evaluation. From each condition (triplicates) 20-30 pictures were taken randomly chosen by the Dapi-signal. Cell numbers were determined by using an ImageJ Macro to count the nuclei whereas MBP positive cells were subsequently counted manually in black and white images.
The effect on oligodendroglial differentiation of 32 compounds (“Front runners”) was tested. Induced pluripotent stem cells in which the transcription factors SOX10, OLIG2, NKX6.2 were inserted in a doxycycline inducible manner into a human safe harbor were differentiated into neural stem cells. Differentiation into oligodendrocytes was induced by addition of doxycycline. Cells were cultured either in a minimal medium (MM) (negative control) or in MM with the different compounds at a concentration of 1 μM. Addition of T3 to the minimal medium served as a positive control.

[7] = tested on: murine cortical neurons (14 DIV); assay: NMDA-mediated neuroprotective assay (CCK8 viability); format: cell-based, mouse; details: 1 μM, 3 h pre-treatment, NMDA 8 μM 24 h, p<0.05
Summary of the method: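 Primary murine cortical neurons pre-treated with 1 μM compound for 3 or 24 h, then exposed to 8 μM NMDA for 24 h. Viability read by CCK-8 and expressed relative to NMDA-only control; vehicle 0.02% DMSO.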

Row | SMILES | morphological integrity (neurite length) of cortical and striatal neurons [1] | CG4 differentiation compared with 9cis-RA positive control [2] | fold induction at 1 µM [3] | cumulative Z-scores of ATP production/viability [4] | further results
1 | COc1ccc2c(OCc3nnc4ccc(-c5ccccc5)nn34)ccnc2c1 [AMG-208] | selected for confirmation |  |  |  | 
2 | C=CCc1ccccc1OCC(O)CNC(C)C (stereo not shown) [Alprenolol] |  | promoting differentiation significantly higher than 9cis-RA positive control | > 1.6 | potential hits | 
3 | O=c1[nH]c2cccc(N3CCN(Cc4cccc(-c5ccccc5)c4)CC3)c2o1 [Bifeprunox] | selected for confirmation |  |  |  | preservation of neurite length and network integrity (branching) [5]: preserved both neurite length and the network integrity (branching); preservation of neurite length and network integrity (branching) ([5]; listed as BIFEPRUNOX): two best-performing compounds
4 | COc1ccc(Cl)cc1[C@]1(F)C(=O)Nc2cc(C(F)(F)F)ccc21 [Flindokalner] | selected for confirmation |  |  |  | 
5 | Cc1c(Cn2c(C)nc3c(C(=O)O)cc(N4CCOCC4)cc32)cccc1C(F)(F)F [GSK-2636771] | selected for confirmation |  |  |  | 
6 | COc1ccc(S(=O)(=O)n2cc(CCC(=O)O)c3cc(OC)ccc32)cc1 [Indeglitazar] |  | promoting differentiation significantly higher than 9cis-RA positive control | > 1.6 | potential hits | differentiation into MBP+ oligodendrocytes [6]: promote significantly (p<0.05) the differentiation into MBP+ oligodendrocytes
7 | Cc1ncc(OC[C@@]2(c3cccc(F)c3)C[C@H]2C(=O)Nc2ccc(F)cn2)c(C)n1 [Lemborexant] |  | promoting differentiation significantly higher than 9cis-RA positive control | > 1.6 | potential hits | 
8 | O=C(Oc1ccc(Br)cc1)N1CCN2CCC1CC2 [SSR180711] | selected for confirmation |  |  |  | neuroprotection of viability/metabolic activity against NMDA [7]: hit compounds; preservation of neurite length and network integrity (branching) [5]: preserved both neurite length and the network integrity (branching); also recorded: two best-performing compounds
9 | C[C@@H](C(=O)O)c1ccc(-c2ccccc2)c(F)c1 [Tarenflurbil] | selected for confirmation |  |  |  | neuroprotection of viability/metabolic activity against NMDA [7]: trend versus significance
10 | CCC(COC(=O)c1cc(OC)c(OC)c(OC)c1)(c1ccccc1)N(C)C (stereo not shown) [Trimebutine] | hit-compound in both cortical and striatal neuronal assays |  |  |  | 
